Laboratory results taken from the supplement of paper PMC10883282.
± gives the standard deviation of the averaged measurements.

Key:
Experiment in all cases: relative viability vs DMSO control (72 h) (fraction); higher = more viable cells
SW1353 = test system: SW1353
Method in brief: (§1)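 Sarcoma cell lines were seeded in 384-well plates at densities set to reach 80–90% confluence. After 24 h, 2.5 µl of serially diluted compound was added (source plates 10 mM to 0.0002 mM), and plates were held 72 h at 37 °C, 5% CO2, with 0.1% DMSO vehicle and a 5 µM positive control. Relative viability came from ATPLite readings as percent growth, averaged over up to triplicate wells. Data were rescaled so full viability equals 1 and none equals 0.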

KHOS-NP = test system: KHOS-NP
Method in brief: as §1

A204 = test system: A204
Method in brief: as §1

HT1080 = test system: HT1080
Method in brief: as §1

SK-ES-1 = test system: SK-ES-1
Method in brief: as §1

SW982 = test system: SW982
Method in brief: as §1

KHOS-240S = test system: KHOS-240S
Method in brief: as §1

RD-ES = test system: RD-ES
Method in brief: as §1

SW684 = test system: SW684
Method in brief: as §1

SYO-1 = test system: SYO-1
Method in brief: as §1

G401 = test system: G401
Method in brief: as §1

SW872 = test system: SW872
Method in brief: as §1

Cc1cccc(-c2[nH]c(CNc3ccccc3F)nc2-c2ccc3ncnn3c2)n1 [Vactosertib]
Settings | relative viability
A204, 0.00017 µM | 1.02 ± 0.052
A204, 0.00051 µM | 1.02 ± 0.031
A204, 0.00152 µM | 1.02 ± 0.014
A204, 0.00457 µM | 1.01 ± 0.031
A204, 0.01372 µM | 1.02 ± 0.082
A204, 0.04115 µM | 1.03 ± 0.053
A204, 0.1235 µM | 0.983 ± 0.048
A204, 0.3704 µM | 1.04 ± 0.044
A204, 1.111 µM | 1.03 ± 0.088
A204, 3.333 µM | 0.953 ± 0.012
A204, 10 µM | 0.822 ± 0.08
G401, 0.00017 µM | 0.942 ± 0.043
G401, 0.00051 µM | 0.937 ± 0.038
G401, 0.00152 µM | 0.969 ± 0.029
G401, 0.00457 µM | 0.984 ± 0.038
G401, 0.01372 µM | 0.97 ± 0.065
G401, 0.04115 µM | 0.937 ± 0.039
G401, 0.1235 µM | 0.9496 ± 0.0058
G401, 0.3704 µM | 0.978 ± 0.034
G401, 1.111 µM | 0.9638 ± 0.0026
G401, 3.333 µM | 0.967 ± 0.058
G401, 10 µM | 0.923 ± 0.043
HT1080, 0.00017 µM | 1.02 ± 0.051
HT1080, 0.00051 µM | 1 ± 0.033
HT1080, 0.00152 µM | 0.967 ± 0.046
HT1080, 0.00457 µM | 1.01 ± 0.017
HT1080, 0.01372 µM | 1.042 ± 0.01
HT1080, 0.04115 µM | 1.01 ± 0.02
HT1080, 0.1235 µM | 1.04 ± 0.016
HT1080, 0.3704 µM | 1.05 ± 0.072
HT1080, 1.111 µM | 1.02 ± 0.012
HT1080, 3.333 µM | 1.02 ± 0.058
HT1080, 10 µM | 1.01 ± 0.043
KHOS-240S, 0.00017 µM | 1.02 ± 0.021
KHOS-240S, 0.00051 µM | 1.04 ± 0.057
KHOS-240S, 0.00152 µM | 1.03 ± 0.028
KHOS-240S, 0.00457 µM | 1.02 ± 0.024
KHOS-240S, 0.01372 µM | 1.03 ± 0.025
KHOS-240S, 0.04115 µM | 1 ± 0.029
KHOS-240S, 0.1235 µM | 0.992 ± 0.042
KHOS-240S, 0.3704 µM | 0.966 ± 0.05
KHOS-240S, 1.111 µM | 0.952 ± 0.064
KHOS-240S, 3.333 µM | 0.885 ± 0.045
KHOS-240S, 10 µM | 0.708 ± 0.022
KHOS-NP, 0.00017 µM | 1.05 ± 0.045
KHOS-NP, 0.00051 µM | 1.05 ± 0.032
KHOS-NP, 0.00152 µM | 1.05 ± 0.056
KHOS-NP, 0.00457 µM | 1.04 ± 0.047
KHOS-NP, 0.01372 µM | 1.03 ± 0.051
KHOS-NP, 0.04115 µM | 1.02 ± 0.029
KHOS-NP, 0.1235 µM | 1.046 ± 0.0091
KHOS-NP, 0.3704 µM | 1.05 ± 0.029
KHOS-NP, 1.111 µM | 1.05 ± 0.025
KHOS-NP, 3.333 µM | 1.05 ± 0.02
KHOS-NP, 10 µM | 1.011 ± 0.0063
RD-ES, 0.00017 µM | 0.9791 ± 0.0047
RD-ES, 0.00051 µM | 0.97 ± 0.017
RD-ES, 0.00152 µM | 0.974 ± 0.021
RD-ES, 0.00457 µM | 0.958 ± 0.017
RD-ES, 0.01372 µM | 0.97 ± 0.027
RD-ES, 0.04115 µM | 0.973 ± 0.041
RD-ES, 0.1235 µM | 0.971 ± 0.021
RD-ES, 0.3704 µM | 0.964 ± 0.032
RD-ES, 1.111 µM | 0.945 ± 0.026
RD-ES, 3.333 µM | 0.925 ± 0.033
RD-ES, 10 µM | 0.865 ± 0.066
SK-ES-1, 0.00017 µM | 0.986 ± 0.035
SK-ES-1, 0.00051 µM | 0.97 ± 0.018
SK-ES-1, 0.00152 µM | 0.98 ± 0.029
SK-ES-1, 0.00457 µM | 0.974 ± 0.028
SK-ES-1, 0.01372 µM | 1.02 ± 0.034
SK-ES-1, 0.04115 µM | 1 ± 0.029
SK-ES-1, 0.1235 µM | 1.04 ± 0.059
SK-ES-1, 0.3704 µM | 1.02 ± 0.024
SK-ES-1, 1.111 µM | 0.964 ± 0.08
SK-ES-1, 3.333 µM | 1.01 ± 0.013
SK-ES-1, 10 µM | 0.898 ± 0.066
SW684, 0.00017 µM | 1.15 ± 0.046
SW684, 0.00051 µM | 1.08 ± 0.037
SW684, 0.00152 µM | 1.08 ± 0.039
SW684, 0.00457 µM | 1.1 ± 0.071
SW684, 0.01372 µM | 1.07 ± 0.038
SW684, 0.04115 µM | 1.06 ± 0.064
SW684, 0.1235 µM | 1.07 ± 0.011
SW684, 0.3704 µM | 1.04 ± 0.015
SW684, 1.111 µM | 1.08 ± 0.026
SW684, 3.333 µM | 1.07 ± 0.07
SW684, 10 µM | 1.11 ± 0.018
SW872, 0.00017 µM | 0.928 ± 0.04
SW872, 0.00051 µM | 0.938 ± 0.055
SW872, 0.00152 µM | 0.932 ± 0.068
SW872, 0.00457 µM | 0.958 ± 0.047
SW872, 0.01372 µM | 0.979 ± 0.027
SW872, 0.04115 µM | 0.95 ± 0.049
SW872, 0.1235 µM | 0.969 ± 0.024
SW872, 0.3704 µM | 0.999 ± 0.043
SW872, 1.111 µM | 1.06 ± 0.02
SW872, 3.333 µM | 1.062 ± 0.01
SW872, 10 µM | 1.02 ± 0.018
SW982, 0.00017 µM | 0.9904 ± 0.0094
SW982, 0.00051 µM | 1.02 ± 0.034
SW982, 0.00152 µM | 0.999 ± 0.021
SW982, 0.00457 µM | 0.998 ± 0.011
SW982, 0.01372 µM | 0.9987 ± 0.0081
SW982, 0.04115 µM | 1.03 ± 0.033
SW982, 0.1235 µM | 1.01 ± 0.021
SW982, 0.3704 µM | 0.984 ± 0.012
SW982, 1.111 µM | 1 ± 0.033
SW982, 3.333 µM | 1.02 ± 0.023
SW982, 10 µM | 0.936 ± 0.034
SW1353, 0.00017 µM | 0.904 ± 0.015
SW1353, 0.00051 µM | 0.964 ± 0.047
SW1353, 0.00152 µM | 0.89 ± 0.047
SW1353, 0.00457 µM | 0.911 ± 0.098
SW1353, 0.01372 µM | 0.947 ± 0.074
SW1353, 0.04115 µM | 0.953 ± 0.041
SW1353, 0.1235 µM | 0.96 ± 0.031
SW1353, 0.3704 µM | 0.946 ± 0.038
SW1353, 1.111 µM | 0.968 ± 0.05
SW1353, 3.333 µM | 0.893 ± 0.038
SW1353, 10 µM | 0.875 ± 0.021
SYO-1, 0.00017 µM | 0.9167 ± 0.0083
SYO-1, 0.00051 µM | 0.925 ± 0.017
SYO-1, 0.00152 µM | 0.929 ± 0.015
SYO-1, 0.00457 µM | 0.895 ± 0.023
SYO-1, 0.01372 µM | 0.894 ± 0.036
SYO-1, 0.04115 µM | 0.872 ± 0.04
SYO-1, 0.1235 µM | 0.86 ± 0.031
SYO-1, 0.3704 µM | 0.808 ± 0.037
SYO-1, 1.111 µM | 0.773 ± 0.023
SYO-1, 3.333 µM | 0.697 ± 0.025
SYO-1, 10 µM | 0.591 ± 0.04
